Laboratory results from patent US20230045151A1, “COMPOSITIONS AND METHODS” (MONASH UNIVERSITY, priority 2020, published 2023).

Test system: lung DCs
Assay: In vivo tracking of DCs after intranasal fluorescently labelled HDM
Set-up: species or system mouse
Details: L-tyrosine-treated mice, intranasal HDM-AF647
Protocol: Mediastinal lymph nodes were filtered through a 40 μm cell strainer, washed with PBS supplemented with 1% fetal bovine serum and 2 mM EDTA (Invitrogen) (MACS buffer). Lungs were finely cut with scissors, digested with Collagenase IV (Gibco™) in Iscove's modified Dulbecco's medium (IMDM, Gibco™) for 50 min at 37° C. and processed as the lymph nodes. Cell counts were determined with Coulter Counter and […] were stained with freshly prepared antibody mix in MACS buffer for 20 minutes at 4° C. in a 96-well round-bottom plates (Costar). Dendritic cells were identified using monoclonal antibodies against CD11c-phycoerythrin (PE)/Cy7 (Biolegend, cat nr 117318; diluted 1:400 in MACS buffer), SiglecF-Alexa Fluor (AF) 647 (BD Biosciences™, 562680; 1:400) and MHC-II-AF700 (Biolegend, 107622, 1:800). DC activation was assessed using antibodies against PD-L2-PE (Biolegend, 107205; 1:200), CD80− Brilliant Violet (BV)-605 (Biolegend, 104729; 1:200) and CD86-BV650 (Biolegend, 105035; 1:200). T helper cells were identified using antibodies against CD3c-Pacific Blue (PB) (Biolegend, 100214; 1:800) and CD4− PerCP-Cy5.5 (Biolegend, 100434; 1:800). Activated T helper cells were identified using anti-CD44-PE antibody (BD Biosciences™, 553134, 1: 400) A regulatory subset of T helper cells (Tregs) was identified with the addition of anti-CD25-AF700 (Biolegend, 102024; 1:200) and anti-Foxp3-AF647 (Biolegend, 126408; 1:200) antibodies. For the latter, an intracellular staining was performed, where cells were incubated with anti-Foxp3 antibody diluted in 0.5% saponin from Quillaja bark (Sigma-Aldrich) for 40 minutes at 4° C. B cells were identified with anti-CD19-PE/Cy7 (eBioscience, 25-0193; 1:200) and anti-B220-FITC (Biolegend, 103206; 1:200). When indicated, HEL and HDM were labelled with Alexa Fluor 647 antibody labelling kit (Invitrogen™) and separated from the unlabelled dye with the use of PD-10 desalting columns (GE Healthcare). […] Samples were analyzed with FlowJo 10.4.2 software (Tree Star Inc., Ashland, Oreg.). […]

## N[C@@H](Cc1ccc(O)cc1)C(=O)O [L-tyrosine]
  activation of lung DCs (surface CD80, CD86, PD-L2): impairment
  antigen (HDM) uptake by lung DCs: modest effect
  migratory capacity of DCs (frequency of HDM+ DCs in the draining LNs): decreased
